Data published in patent EP0013144A1, “Substituted diphenylamine derivatives, compositions and herbicidal uses thereof, and processes for their preparation” (ICI AUSTRALIA LIMITED, priority 1978, dated 1980).

Legend:
Type in all cases: in vivo
[1] = tested on: Wheat; assay: Pre-emergence herbicidal activity (Example 31); set-up: key: 0-3 scale: 0 = 0-25% damage, 3 = 75-99% kill, 3+ = 100% kill; conditions: after three weeks
In short: (§1)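 Seeded soil boxes (seeds at 2 cm) were sprayed with water-diluted emulsifiable concentrates or milled suspensions, then held under glass. Three weeks later, visual scoring: 0 = 0–25% damage, 3 = 75–99% kill, 3+ = complete kill; unsprayed duplicate boxes as reference.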

[2] = tested on: Ipomea; assay: Pre-emergence herbicidal activity (Example 31); conditions: after three weeks
In short: as §1

[3] = tested on: Mustard; assay: Pre-emergence herbicidal activity (Example 31); conditions: after three weeks
In short: as §1

[4] = tested on: Sunflower; assay: Pre-emergence herbicidal activity (Example 31); conditions: after three weeks
In short: as §1

[5] = tested on: Wild Oats; assay: Pre-emergence herbicidal activity (Example 31); conditions: after three weeks
In short: as §1

[6] = tested on: Wheat; assay: Post-emergence herbicidal activity (Example 32); set-up: key: 0-3 scale: 0 = 0-25% damage, 3 = 75-99% kill, 3+ = 100% kill; conditions: 3 weeks after spraying
In short: (§2)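 Compounds were formulated as emulsifiable concentrates in toluene with surfactants (oils, waxy solids) or ball-milled aqueous suspensions (crystalline solids), then diluted with water. Glasshouse seedlings in soil, grown to about 10 to 12.5 cm, were sprayed. Damage was scored visually after 3 weeks against untreated controls on a 0–3 scale (3+ = 100% kill).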

[7] = tested on: Amaranthus retroflexus; assay: Pre-emergence herbicidal test, fibre trays (Example 33); conditions: after 21 days
In short: (§3)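 Compounds were emulsified with Span 80 and Tween 20 in methylcyclohexanone, diluted with water and sprayed. Post-emergence, young pot plants were sprayed and scored at 14 days. Pre-emergence, seeds sown in fibre-tray soil were sprayed, thinly covered with fresh soil and scored at 21 days (0 = 0–20% damage, 5 = complete kill).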

[8] = tested on: Chenopodium album; assay: as above; conditions: 2.0 kg/ha, after 21 days
In short: as §3

[9] = tested on: Polygonum aviculare; assay: as above; conditions: after 21 days
In short: as §3

[10] = tested on: Maize; assay: Post-emergence herbicidal test, young pot plants (Example 33); set-up: key: 0 is 0 to 20% damage; 5 is complete kill; conditions: after 14 days
Procedure: (§4) The compounds were formulated for test by mixing an appropriate amount with 5 ml of an emulsion prepared by diluting 160 ml of a solution containing 21.S g per litre of "Span" 80 and 78.2 g per litre of "Tween" 20 in methylcyclohexanone to 500 ml with water. "Span" 80 is a Trade Mark for a surface-active agent comprising sorbitan monolaurate. "Tween" 20 is a Trade Mark for a surface-active agent comprising a condensate of sorbitan monolaurate with 20 molar proportions of ethylene oxide. Each 5 ml emulsion containing a test compound was'then diluted to 40 ml with water and sprayed on to young pot plants (post-emergence test) of the species named in Table 5 below. Damage to test plants was assessed after 14 days on a scale of 0 to 5 where 0 is 0 to 20% damage and 5 is complete kill. In a test for pre-emergence herbicidal activity, seeds of the test plants were sown in a shallow slit formed in the surface of soil in fibre trays. The surface was then levelled and sprayed, and fresh soil then spread thinly over the sprayed surface. Assessment of herbicidal damage was carried out after 21 days using the same scale of 0 to 5 as the post-emergence test. In both cases the degree of herbicidal damage was assessed by comparison with untreated control plants. A dash (-) means that no experiment was carried out.

[11] = tested on: Rice; assay: as above; set-up: key: 0 is 0 to 20% damage; 5 is complete kill; conditions: after 14 days
Procedure: as §4

[12] = tested on: Winter wheat; assay: as above; set-up: key: 0 = 0-20% damage, 5 = complete kill, vs untreated control; conditions: after 14 days
Procedure: as §4

[13] = tested on: Polygonum aviculare; assay: as above; conditions: 2.0 kg/ha, after 14 days
In short: as §3

[14] = tested on: Rape; assay: as above; conditions: 2.0 kg/ha, after 14 days
In short: as §3

[15] = tested on: Senecio vulgaris; assay: as above; conditions: after 14 days
In short: as §3

[16] = tested on: Wild Oats; assay: Post-emergence herbicidal activity (Example 32); conditions: 3 weeks after spraying
In short: as §2

SMILES	damage to plants, Wh ([1]; 1 kg/ha)	damage to plants, Wh ([1]; 5 kg/ha)	damage to plants, Ip ([2]; 1 kg/ha)	damage to plants, Ip ([2]; 5 kg/ha)	damage to plants, Ms ([3]; 1 kg/ha)	damage to plants, Ms ([3]; 5 kg/ha)	damage to plants, Sf ([4]; 1 kg/ha)	damage to plants, Sf ([4]; 5 kg/ha)	damage to plants, Ot ([5]; 1 kg/ha)	damage to plants, Ot ([5]; 5 kg/ha)	damage to plants, Wh ([6]; 1 kg/ha)	damage to plants, Wh ([6]; 5 kg/ha)	herbicidal damage, Am ([7]; 2.0 kg/ha)	herbicidal damage, Ca [8]	herbicidal damage, Pi ([9]; 2.0 kg/ha)	damage to test plants, Mz ([10]; 2.0 kg/ha)	damage to test plants, Rc ([11]; 2.0 kg/ha)	damage to test plants, Ww ([12]; 2.0 kg/ha)	damage to test plants, Pi [13]	damage to test plants, Rp [14]	other results
COC(=O)C(C)Oc1ccc(N(C)c2ccc(Br)cc2[N+](=O)[O-])cc1 (stereo not shown) [Compound 30]	0 (0 represents from 0 to 25% damage)	0 (0 represents from 0 to 25% damage)	0 (0 represents from 0 to 25% damage)	0 (0 represents from 0 to 25% damage)	1	2	0 (0 represents from 0 to 25% damage)	0 (0 represents from 0 to 25% damage)	1	3 (3 represents 75 to 99% kill)	2	3+ (3+ represents 100% kill)	1	0 (0 is 0 to 20% damage)	0 (0 is 0 to 20% damage)	5	4	4	0 (0 is 0 to 20% damage)	1	damage to test plants, Sn ([15]; 2.0 kg/ha): 2
C#CCN(c1ccc(OC(C)C(=O)OC)cc1)c1ccc(C(F)(F)F)cc1[N+](=O)[O-] (stereo not shown) [Compound 81]	–	–	0 (0 represents from 0 to 25% damage)	0 (0 represents from 0 to 25% damage)	0 (0 represents from 0 to 25% damage)	0 (0 represents from 0 to 25% damage)	0 (0 represents from 0 to 25% damage)	0 (0 represents from 0 to 25% damage)	–	–	2	3 (3 represents 75 to 99% kill)	0 (0 is 0 to 20% damage)	0 (0 is 0 to 20% damage)	0 (0 is 0 to 20% damage)	4	4	4	0 (0 is 0 to 20% damage)	0 (0 is 0 to 20% damage)	damage to plants, Ot ([16]; 1 kg/ha): 3+ (3+ represents 100% kill); damage to plants, Ot ([16]; 5 kg/ha): 3+ (3+ represents 100% kill)
COC(=O)C(C)Oc1ccc(N(C)c2ccc(Cl)cc2Cl)cc1 (stereo not shown) [Compound 1, Methyl 2-[4-(2,4-dichloro-N-methylanilino)phenoxy]-propionate]	0 (0 represents from 0 to 25% damage)	0 (0 represents from 0 to 25% damage)	0 (0 represents from 0 to 25% damage)	0 (0 represents from 0 to 25% damage)	0 (0 represents from 0 to 25% damage)	0 (0 represents from 0 to 25% damage)	0 (0 represents from 0 to 25% damage)	0 (0 represents from 0 to 25% damage)	0 (0 represents from 0 to 25% damage)	0 (0 represents from 0 to 25% damage)	0 (0 represents 0 to 25% damage)	1	–	–	–	5	0 (0 is 0 to 20% damage)	3	0 (0 is 0 to 20% damage)	2	damage to test plants, Sn ([15]; 2.0 kg/ha): 1
COC(=O)C(C)Oc1ccc(Nc2ccc(Br)cc2[N+](=O)[O-])cc1 (stereo not shown) [Compound 29]	1	1	0 (0 represents from 0 to 25% damage)	0 (0 represents from 0 to 25% damage)	0 (0 represents from 0 to 25% damage)	0 (0 represents from 0 to 25% damage)	0 (0 represents from 0 to 25% damage)	0 (0 represents from 0 to 25% damage)	1	3+ (3+ represents 100% kill)	2	3+ (3+ represents 100% kill)	0 (0 is 0 to 20% damage)	0 (0 is 0 to 20% damage)	0 (0 is 0 to 20% damage)	5	5	4	0 (0 is 0 to 20% damage)	1	damage to test plants, Sn ([15]; 2.0 kg/ha): 4
COC(=O)C(C)Oc1ccc(N(C)c2ccc(Cl)cc2[N+](=O)[O-])cc1 (stereo not shown) [Compound 27]	0 (0 represents from 0 to 25% damage)	1	0 (0 represents from 0 to 25% damage)	0 (0 represents from 0 to 25% damage)	0 (0 represents from 0 to 25% damage)	0 (0 represents from 0 to 25% damage)	0 (0 represents from 0 to 25% damage)	0 (0 represents from 0 to 25% damage)	–	–	2	3+ (3+ represents 100% kill)	0 (0 is 0 to 20% damage)	0 (0 is 0 to 20% damage)	0 (0 is 0 to 20% damage)	5	4	4	0 (0 is 0 to 20% damage)	0 (0 is 0 to 20% damage)	damage to test plants, Sn ([15]; 2.0 kg/ha): 1
COC(=O)C(C)Oc1ccc(Nc2ccc(Cl)cc2[N+](=O)[O-])cc1 (stereo not shown) [Compound 28]	0 (0 represents from 0 to 25% damage)	2	0 (0 represents from 0 to 25% damage)	0 (0 represents from 0 to 25% damage)	0 (0 represents from 0 to 25% damage)	0 (0 represents from 0 to 25% damage)	0 (0 represents from 0 to 25% damage)	0 (0 represents from 0 to 25% damage)	2	3+ (3+ represents 100% kill)	3 (3 represents 75 to 99% kill)	3+ (3+ represents 100% kill)	–	–	–	–	–	–	–	–	herbicidal damage, Am ([7]; 1.0 kg/ha): 0 (0 is 0 to 20% damage); herbicidal damage, Pi ([9]; 1.0 kg/ha): 0 (0 is 0 to 20% damage); damage to test plants, Mz ([10]; 1.0 kg/ha): 5; damage to test plants, Rc ([11]; 1.0 kg/ha): 4; damage to test plants, Ww ([12]; 1.0 kg/ha): 4; damage to test plants, Sn ([15]; 1.0 kg/ha): 0 (0 is 0 to 20% damage)
